Results from ChEMBL document CHEMBL4673354, “N-(Methyloxycarbonyl)thiophene sulfonamides as high affinity AT2 receptor ligands” (Bioorg Med Chem, 2021).

Columns and labels:
[1] = Apparent permeability across apical to basolateral side and basolateral to apical side in human Caco-2 cells at 5 uM measured up to 60 mins by LC-MS/MS analysis; format: ADME, cell-based
[2] = Oral bioavailability in rat; format: ADME, organism-based; settings: in vivo

Row | Papp at 1 h, 5 µM [1] | bioavailability [2] | Structure (SMILES)
1 | 0.4 ×10⁻⁶ cm/s | – | CCCCOC(=O)NS(=O)(=O)c1sc(CC(C)C)cc1-c1cccc(C(=O)Cn2cnc3cc(C)c(C)cc32)c1
2 | – | 33% | COc1ccc2c(c1OCc1ccccc1)CC(C(=O)O)N(C(=O)C(c1ccccc1)c1ccccc1)C2 (centres undefined)
3 | 1.8 ×10⁻⁶ cm/s | – | COc1ccc2c(c1OCc1ccccc1)C[C@@H](C(=O)O)N(C(=O)C(c1ccccc1)c1ccccc1)C2 [OLODANRIGAN]
4 | 3.4 ×10⁻⁶ cm/s | – | CCCCOC(=O)NS(=O)(=O)c1sc(CC(C)C)cc1-c1cccc(Cn2ccnc2)c1
